The values below are quoted from earlier work in patent US20240041741A1, “COSMETIC COMPOSITION OBTAINED BY MIXING TWO SILANE BLENDS” (Henkel AG & Co. KGaA, priority 2020, published 2024).

For this series the following is noted: for solubility in water: 25° C.

Take `O=S(=O)([O-])c1ccc(N=Nc2c(O)ccc3ccccc23)cc1.[Na+]` [Acid Orange 7, sodium salt of 4-[(2-hydroxy-1-naphthyl)azo]benzene sulphonate]: the solubility in water entry is listed as “more than 7 g/L”. `Nc1cc(S(=O)(=O)[O-])cc2cc(S(=O)(=O)[O-])c(N=Nc3ccccc3)c(O)c12.[Na+].[Na+]` [Acid Red 33, diantrium salt of 5-amino-4-hydroxy-3-(phenylazo)-naphthalene-2,7-disulphonate]: the solubility in water was 2.5 mg/mL. Turning to `O=C([O-])c1c(Cl)c(Cl)c(Cl)c(Cl)c1-c1c2c(Br)cc(=O)c(Br)c-2oc2c(Br)c(O)cc(Br)c12.O=C([O-])c1c(Cl)c(Cl)c(Cl)c(Cl)c1-c1c2c(Br)cc(=O)c(Br)c-2oc2c(Br)c(O)cc(Br)c12.[Na+].[Na+]` [Acid Red 92, disodium salt of 3,4,5,6-tetrachloro-2-(1,4,5,8-tetrabromo-6-hydroxy-3-oxoxanthen-9-yl)benzoic acid], the solubility in water result is given as “greater than 10 g/L”.

On to `O=C([O-])C1=NN(c2ccc(S(=O)(=O)[O-])cc2)C(=O)C1N=Nc1ccc(S(=O)(=O)[O-])cc1.[Na+].[Na+].[Na+]` (centres unmarked) [Acid Yellow 23, trisodium salt of 4,5-dihydro-5-oxo-1-(4-sulfophenyl)-4-((4-sulfophenyl)azo)-1H-pyrazole-3-carboxylic acid], for which the “solubility in water (in words)” value (at 25° C.) is “readily soluble in water”.

“mixture of the sodium salts of mono- and sisulfonic acids of 2-(2-quinolyl)-1H-indene-1,3(2H)-dione [Acid Yellow 3]”: the solubility in water was 20 mg/mL.
